# Assay results: patent publication US11549123B2, “Plant EPSP synthases and methods of use” (PIONEER HI-BRED INTERNATIONAL, INC., priority 2015, dated 2023)
# What was measured:
# Format in all cases: biochemical
# [1] = target: T1, Zea mays EPSPS variant Zm-P107L (Zea mays, UniProt O24566, P106L); assay: Rapid two-rate method for (kcat/KM)*KI, Zm-P107L
# T1 construct: native maize plus P107L; E. coli BL21(DE3), Ni-NTA purified
# Source text: (§1) There are several practical considerations for accurately estimating (kcat/KM)*KI with the rapid method. […] 2) The inhibitor concentration must be adjusted so as to obtain a degree of inhibition that minimally amplifies the error in the term v0-vi in Equation 3. If inhibition is too little, v0-vi will be small, and the error in the multiplier vi×v0/(v0-vi) will be large. […] 3) Substrate concentration should be set at the approximate KM of the parental variant(s), subject to the sensitivity of the assay. High substrate concentration obscures sensitivity to the inhibitor and reduces stringency for capturing improvements in KM. Depending on the necessity for speed, there exists opportunity for customizing enzyme and inhibitor concentrations. […] The rapid method was repeated for those and obtained data that correlated better with data obtained by substrate saturation analysis. For screening purposes however, that correlation step is not necessary. Conditions can be set so that variants with a pre-determined minimal fitness level are accurately quantified.
# (§2) In Table 15, parameters above the heavy line for the rapid method were obtained under standard conditions. For variants shown below the heavy line, the rapid analysis was repeated with enzyme or glyphosate concentrations adjusted as needed to generate sufficient signal within the limits for linear initial rates.
# [2] = target: Zea mays EPSPS variant WT-FS-D (101S 107L 302S 338S) (Zea mays, UniProt O24566, A100S/A337S/E301S/P106L); assay: EPSPS substrate saturation kinetics, WT-FS-D
# Description: (§3) EPSPS activity was determined by quantifying the phosphate generated from the EPSPS reaction. Release of inorganic phosphate was coupled to reaction with 2-amino-6-mercapto-7-methylpurine ribonucleoside, catalyzed by purine-nucleoside phosphorylase (M R Webb, Proc. Natl. Acad. Sci. 89:4884-4887, 1992). The absorbance change that occurs was monitored at 360 nm, where the extinction is 11,200 M^−1 cm^−1, with a Spectramax plate reader (Molecular Devices). To determine kinetic parameters, the varied substrate was present at seven concentrations (the eighth being the blank, containing no substrate) ranging from 4 to 400 uM and the unvaried substrate present at saturation. […] Reactions were monitored with a Spectramax plate reader. […] KI was then calculated from the following form of the Michaelis-Menten equation for competitive inhibition: KI=KM[I]/(KM app−KM) KM approximates the dissociation constant of the enzyme-substrate complex while kcat is the rate of conversion of substrate to product when the substrate concentration is saturating. kcat/KM is a widely accepted parameter for catalytic efficiency when substrate concentration is low (˜KM). […] The parameter kcat/KM×KI is used to quantify both catalytic efficiency and insensitivity and thus the overall fitness of the enzyme. […]
# [3] = target: T2, Zea mays EPSPS variant Zm-T103A (Zea mays, UniProt O24566, T102A); assay: Rapid two-rate method for (kcat/KM)*KI, Zm-T103A; conditions: [E] 0.07 uM, [Gly] 1000 uM
# T2 construct: native maize plus T103A; E. coli BL21(DE3), Ni-NTA purified
# T2 sequence (O24566 with tags, fused parts or gaps T102A): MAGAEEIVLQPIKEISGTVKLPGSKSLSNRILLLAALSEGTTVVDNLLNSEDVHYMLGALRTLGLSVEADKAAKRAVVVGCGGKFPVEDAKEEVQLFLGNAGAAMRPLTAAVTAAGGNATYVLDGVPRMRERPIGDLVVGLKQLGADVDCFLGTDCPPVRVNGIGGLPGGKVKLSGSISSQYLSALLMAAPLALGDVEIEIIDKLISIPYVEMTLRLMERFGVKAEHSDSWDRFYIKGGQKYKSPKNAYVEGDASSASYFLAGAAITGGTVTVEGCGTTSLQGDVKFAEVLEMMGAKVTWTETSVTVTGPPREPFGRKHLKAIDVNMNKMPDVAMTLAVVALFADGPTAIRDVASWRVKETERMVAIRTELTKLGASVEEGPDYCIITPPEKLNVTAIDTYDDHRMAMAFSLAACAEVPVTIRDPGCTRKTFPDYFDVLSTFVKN
# Source text: as §1, §2
# [4] = target: Zea mays EPSPS variant 123-C1 (A2R, A4W, K84R, L98C, G102A, I208L, K243E, E391P, D402G), SEQ ID NO:6 (Zea mays, UniProt O24566, A1R/A3W/D401G/E390P/G101A/I207L/K242E/K83R/L97C); assay: EPSPS substrate saturation kinetics, 123-C1
# Description: as §3
# [5] = PEP as substrate, glyphosate as inhibitor
# T1 sequence (O24566 entry or part of it P106L): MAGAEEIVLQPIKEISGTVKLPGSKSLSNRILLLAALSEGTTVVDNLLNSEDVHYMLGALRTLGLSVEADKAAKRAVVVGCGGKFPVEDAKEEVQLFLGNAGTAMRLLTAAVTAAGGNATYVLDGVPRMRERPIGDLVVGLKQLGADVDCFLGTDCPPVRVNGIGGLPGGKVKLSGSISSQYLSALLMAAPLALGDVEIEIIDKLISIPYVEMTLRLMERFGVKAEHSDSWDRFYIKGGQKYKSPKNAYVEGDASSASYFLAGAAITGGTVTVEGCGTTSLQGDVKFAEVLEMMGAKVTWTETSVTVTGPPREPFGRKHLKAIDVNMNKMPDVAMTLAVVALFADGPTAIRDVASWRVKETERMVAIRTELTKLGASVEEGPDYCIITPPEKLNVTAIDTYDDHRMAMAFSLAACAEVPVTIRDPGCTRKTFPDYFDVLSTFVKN
# Zea mays EPSPS variant WT-FS-D (101S 107L 302S 338S), sequence (O24566 entry or part of it A100S/P106L/E301S/A337S): as the sequence (O24566 entry or part of it P106L) above, with A101S, E302S, A338S counted along it
# Zea mays EPSPS variant 123-C1 (A2R, A4W, K84R, L98C, G102A, I208L, K243E, E391P, D402G), SEQ ID NO:6, sequence (O24566 entry or part of it A1R/A3W/K83R/L97C/G101A/I207L/K242E/E390P/D401G): as the sequence (O24566 entry or part of it P106L) above, with A2R, A4W, K84R, L98C, G102A, L107P, I208L, K243E, E391P, D402G counted along it
structure (smiles),measurement,setting,value
"O=C(O)CNCP(=O)(O)O [glyphosate, N-phosphonomethylglycine]",(kcat/KM)*KI,"[1]; rapid method repeated, [E] 0.014 uM, [Gly] 10 uM",91
same,(kcat/KM)*KI,"[1]; rapid method, [E] 0.07 uM, [Gly] 1000 uM",111
same,Ki,[2],3.81 µM
same,(kcat/KM)*KI,[2]; [5],346
same,(kcat/KM)*KI,[3],543
same,Ki,[4],559 µM
same,(kcat/KM)*KI,[4]; [5],10100
